Experimental data taken from article PMC12881674, “Activation of TRPV3 channels in bladder cancer cells stimulates ATP release” (Molecular Pharmacology, 2025).

Experiments:
parental HEK cells = assay: Ca2+ assays (fluo-4 and fura-2) in parental HEK cells lacking TRPV3; type: cell-based, human; conditions: concentrations up to 50 μM
Method: All fluorometric Ca^2+ assays were performed in HBS buffer at room temperature. The compounds of the Enamine Diversity Set were diluted in a buffer composed of 150 mM NaCl and 20 mM HEPES and added to the cells at a final concentration of 25 μM (0.5% DMSO). For the primary compound screening and the generation of concentration-response analyses, a robotic liquid handling station (Freedom Evo 150; Tecan) with a built-in custom-made fluorescence plate imager was used. HEKTRPV3 and bladder cancer cell lines were harvested and loaded with 4 μM fluo-4/AM (Invitrogen; Fisher Scientific) in cell culture medium for 30 minutes at 37 °C. […] Fluorescence was excited using a 470-nm light-emitting diode, and emitted light was imaged through a 515-nm–long pass filter with a cooled Zyla 5.5 camera (Andor). Fluorescence was recorded and processed under the control of the μ-Manager 2.0 gamma software (https://micro-manager.org.[28]). After recording baseline fluorescence, compounds were dispensed into the wells via the liquid handling device. […] For further analysis, fluorescence signals were calculated for each well, corrected for background intensities and normalized to the initial signals. […] Fluorescence signals were excited with a fiber-coupled monochromator device (Polychrome V; Till Photonics) at 340, 358, and 380 nm and calibrated as described before.[29] […]

human TRPM2 = molecular target: T1, human TRPM2 (Homo sapiens, UniProt O94759); assay: fluo-4 Ca2+ assay selectivity, HEK cells expressing human TRPM2; type: cell-based; conditions: concentrations up to 50 μM
T1 construct: expressed in transfected cells; host or cells: HEK293
T1 sequence (O94759 whole entry): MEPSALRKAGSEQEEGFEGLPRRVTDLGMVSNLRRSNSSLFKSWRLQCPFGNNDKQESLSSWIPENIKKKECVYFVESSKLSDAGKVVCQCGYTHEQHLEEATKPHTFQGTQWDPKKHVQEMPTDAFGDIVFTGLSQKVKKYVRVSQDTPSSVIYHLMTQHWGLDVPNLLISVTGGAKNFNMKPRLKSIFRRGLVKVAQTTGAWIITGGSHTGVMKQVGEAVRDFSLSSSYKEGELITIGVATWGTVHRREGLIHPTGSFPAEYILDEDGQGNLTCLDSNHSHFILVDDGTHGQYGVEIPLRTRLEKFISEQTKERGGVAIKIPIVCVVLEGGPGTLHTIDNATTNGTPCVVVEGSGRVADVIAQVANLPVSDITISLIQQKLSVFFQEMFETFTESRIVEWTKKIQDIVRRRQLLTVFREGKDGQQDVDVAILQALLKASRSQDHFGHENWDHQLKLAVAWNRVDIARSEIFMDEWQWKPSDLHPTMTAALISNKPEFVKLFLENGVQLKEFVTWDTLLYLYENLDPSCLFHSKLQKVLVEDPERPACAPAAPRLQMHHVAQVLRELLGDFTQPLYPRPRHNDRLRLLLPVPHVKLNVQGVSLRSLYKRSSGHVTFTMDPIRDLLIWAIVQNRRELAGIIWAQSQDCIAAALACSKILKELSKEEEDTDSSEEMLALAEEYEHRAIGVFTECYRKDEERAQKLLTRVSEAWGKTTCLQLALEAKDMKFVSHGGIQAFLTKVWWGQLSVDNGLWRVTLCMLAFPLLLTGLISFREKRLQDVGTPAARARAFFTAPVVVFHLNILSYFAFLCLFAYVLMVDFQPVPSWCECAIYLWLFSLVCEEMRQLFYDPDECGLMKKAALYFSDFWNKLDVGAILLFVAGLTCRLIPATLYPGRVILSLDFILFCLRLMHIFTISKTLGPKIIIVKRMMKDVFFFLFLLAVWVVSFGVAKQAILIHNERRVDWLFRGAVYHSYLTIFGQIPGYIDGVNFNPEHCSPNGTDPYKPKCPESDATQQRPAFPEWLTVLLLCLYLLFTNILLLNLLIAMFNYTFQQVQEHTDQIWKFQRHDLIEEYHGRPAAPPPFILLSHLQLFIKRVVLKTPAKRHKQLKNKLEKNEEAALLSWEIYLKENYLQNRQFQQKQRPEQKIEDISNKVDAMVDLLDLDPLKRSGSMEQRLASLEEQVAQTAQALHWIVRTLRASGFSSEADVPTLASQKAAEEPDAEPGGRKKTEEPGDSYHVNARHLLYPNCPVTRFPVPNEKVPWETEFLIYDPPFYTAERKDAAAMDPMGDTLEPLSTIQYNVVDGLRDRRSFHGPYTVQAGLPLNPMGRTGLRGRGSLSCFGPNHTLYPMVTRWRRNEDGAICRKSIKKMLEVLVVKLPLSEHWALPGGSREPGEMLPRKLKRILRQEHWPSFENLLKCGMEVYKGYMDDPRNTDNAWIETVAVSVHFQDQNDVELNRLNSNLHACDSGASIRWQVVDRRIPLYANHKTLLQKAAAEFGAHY
From the text: KU-19-19 (DSMZ no. ACC 395), CAL-29 (DSMZ no. ACC 515), 647-V (DSMZ no. ACC 414), RT-4 (DSMZ no. ACC 412), and RT-112 (DSMZ no. ACC 418) bladder cancer cell lines were obtained from the Leibniz Institute DSMZ (German Collection of Microorganisms and Cell Cultures). Human TRPV3 (NM_145068, purchased from OriGene) and mouse TRPV3 (NM_001371006), rat TRPV1, mouse TRPV2, mouse TRPV4, human TRPM2, human TRPM8, and human TRPA1 were stably transfected in HEK293 cells as described before.[27] […]
All fluorometric Ca^2+ assays were performed in HBS buffer at room temperature. […] For the primary compound screening and the generation of concentration-response analyses, a robotic liquid handling station (Freedom Evo 150; Tecan) with a built-in custom-made fluorescence plate imager was used. […] Fluorescence was excited using a 470-nm light-emitting diode, and emitted light was imaged through a 515-nm–long pass filter with a cooled Zyla 5.5 camera (Andor). Fluorescence was recorded and processed under the control of the μ-Manager 2.0 gamma software (https://micro-manager.org.[28]). After recording baseline fluorescence, compounds were dispensed into the wells via the liquid handling device. […] For further analysis, fluorescence signals were calculated for each well, corrected for background intensities and normalized to the initial signals. […]

effect on TRPM2 (human TRPM2): no effect
Compound: COC(=O)C12CN(Cc3ccccc3)CC1(C(=O)OC)CN(Cc1ccccc1)C2 (centres unmarked) [AV3-1]
off-target effects on parental HEK cells (parental HEK cells): no detectable off-target effects
